US5914235A (Eli Lilly and Company, priority 1997, dated 1999)
“And” between values parts separate entries of the source, which are not always exact repeats. Equal values may be shown once. Read-outs that look alike come from different tables or passages of the source.

How the values were obtained:
MAO = assay type: biochemical, human
Method: MAO activity was measured with [^14 C]tyramine as substrate using a modification of the method by Yu [P. H. YU, Neuromethods, Neurotransmitter Enzymes, A. A. Boulton, G. B. Baker and P. H. Yu, 235-272, Humana Press, Clifton, N.J. (1986))]. Membranes were incubated with [^14 C]tyramine (0.5 mM) at 21° C., pH 7.4 for 40 min. Enzyme activity was stopped by lowering pH to 1.0 with 2 M HCl. The radiolabeled products of MAO degradation (p-hydroxyphenylacetic acid and p-hydroxymandelic acid) were then extracted into toluene ethyl acetate by vortexing for 15 min and aliquots of the organic phase counted. Extraction was enhanced by the addition of a 1 mg/ml carrier concentration of both products and saturating concentration of NaCl.
(§1) Binding data were calculated as fmol bound ligand/mg protein. Protein was determined by the Lowry method. Binding constants were calculated by nonlinear curve fitting (Lundon Software) and the fit to a one or two site model was tested using two-way ANOVA. Relative MAO activity was calculated as CPM/mg protein/min or moles/mg protein/min.
Data are mean±SEM of 3 experiments. […] The data is depicted in FIG. 5.
Data are expressed as percent of maximum binding or MAO activity and represent the mean±SEM of 3 experiments. […] The data is depicted in FIG. 6.

rat liver MAO A = details: cited from earlier work
rat liver MAO B = details: cited from earlier work
[1] = target: T1, [^3 H]BFI binding sites (I2 binding site) (Homo sapiens, UniProt P27338); experiment: Ligand competition for [^3 H]BFI binding in human cortex; details: for Affinity in competition for [^3 H]BFI binding: human brain
T1 construct: Frozen sections of human cortex (Brodman's areas 8,9,10), human medulla; from tissue; host or cells: P2 membranes of human cortex (Brodmann areas 8, 9, 10) and human medulla (NRL)
T1 sequence (P27338 2-520 limits assumed): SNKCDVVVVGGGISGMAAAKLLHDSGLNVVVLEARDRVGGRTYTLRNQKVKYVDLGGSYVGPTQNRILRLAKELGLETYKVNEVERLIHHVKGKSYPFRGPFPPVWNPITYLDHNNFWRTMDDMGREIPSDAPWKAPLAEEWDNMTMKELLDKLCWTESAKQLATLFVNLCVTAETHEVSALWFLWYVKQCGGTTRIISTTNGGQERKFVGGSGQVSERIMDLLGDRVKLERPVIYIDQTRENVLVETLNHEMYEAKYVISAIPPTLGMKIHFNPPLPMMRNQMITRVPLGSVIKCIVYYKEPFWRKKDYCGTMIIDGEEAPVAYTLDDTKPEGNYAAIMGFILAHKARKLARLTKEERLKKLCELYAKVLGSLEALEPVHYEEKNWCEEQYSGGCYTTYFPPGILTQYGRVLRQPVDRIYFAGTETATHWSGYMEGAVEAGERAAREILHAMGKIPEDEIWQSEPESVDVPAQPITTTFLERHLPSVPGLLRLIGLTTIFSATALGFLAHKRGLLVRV
Method: (§2) Membrane fractions were isolated at 4° C. using differential centrifugation as follows: Homogenates were centrifuged at 500×g to remove nuclei and cell debris followed by 45,000×g to obtain the P2 membrane fraction. The P2 pellet was washed twice with 50 mM Tris-HCl buffer. Between washes the pellet resuspension was incubated for 30 min at 25° C. to allow dissociation of endogenous ligands from their receptors. The final pellet was resuspended in 50 mM Tris-HCl, pH 7.5, and stored at -70° C. until used.
as §1

I2 sites = details: read-out: KD of [^3 H]BFI binding; rabbit cortex, previously reported; cited from earlier work
[2] = target: [^3 H]BFI binding sites (I2 binding site); experiment: Ligand competition for [^3 H]BFI binding in human cortex; details: human cortex, 8 nM [^3 H]BFI, two-site fit
Method: as §2, §1

N[C@@H]1C[C@H]1c1ccccc1 (relative stereo) [TCP, Tranylcypromine]
Inhibition of MAO activity (MAO; 1 μM TCP preincubation (maximal potentiation of binding)): 80% | TCP concentration of maximal inhibition of MAO activity (MAO; 40 min preincubation, washed): 3 µM | Maximal inhibition of MAO activity (MAO; TCP concentrations >3 μM): 95% | Potentiation of BFI binding in guinea pig tissues by TCP (BFI binding sites): not seen

c1ccc2oc(C3=NCCN3)cc2c1 [BFI, 2-(2-benzofuranyl)-2-imidazoline]
Inhibition of rat liver MAO A (rat liver MAO A): inhibits | Inhibition of rat liver MAO B (rat liver MAO B): inhibits

COC1(C2=NCCN2)COc2ccccc2O1 (stereo not drawn) [RX821002]
Ki [1]: 9400 ± 1800 nM | Affinity in competition for [^3 H]BFI binding [1]: low affinity

c1ccc2oc(C3=NCCN3)cc2c1 [[^3 H]BFI, 2-(2-benzofuranyl)-2-imidazoline]
Kd (I2 sites): 2.7 nM

N=C(N)NC(=O)c1nc(Cl)c(N)nc1N [amiloride]
Affinity in competition for [^3 H]BFI binding [1]: low affinity

c1ccc(C2CC2)c(OCC2=NCCN2)c1 [cirazoline]
Ki [1]: 13 ± 4.5 nM | Affinity in competition for [^3 H]BFI binding [1]: high affinity

Clc1cccc(Cl)c1N=C1NCCN1 [clonidine]
Affinity in competition for [^3 H]BFI binding [1]: low affinity | Ki ([2]; read-out: Ki for competition of [^3 H]BFI binding, two-site model, first (high-affinity) value): 73.4 ± 24.6 nM | Ki ([2]; read-out: Ki for competition of [^3 H]BFI binding, two-site model, second (low-affinity) value): 86300 ± 11100 nM

N=C(N)N/N=C/c1c(Cl)cccc1Cl [guanabenz]
Ki [1]: 72.5 ± 24 nM | Affinity in competition for [^3 H]BFI binding [1]: high affinity

c1ccc2c(c1)OCC(C1=NCCN1)O2 (stereo not drawn) [idazoxan]
Ki [1]: 80.4 ± 17 nM | Inhibition of rat liver MAO A (rat liver MAO A): not

COc1nc(C)nc(Cl)c1N=C1NCCN1 [moxonidine]
Affinity in competition for [^3 H]BFI binding [1]: low affinity

C#CCN(C)Cc1ccccc1 [pargyline]
Inhibition of basal MAO activity (MAO; preincubation with 10 μM pargyline, all durations (10, 30, 60 min)): > 90% and 90%
